Assay [1] has as its system T1, CUB and Sushi Domain-containing Insecticide Resistance (CSDIR) protein (XP_035915664.1).
T1 construct: CSDIR^913-1190 (C-terminal CUB and Sushi domains, recombinant in E. coli)
Description: SPR, steady-state fit; degradation by the protein also shown by UPLC. It counts as binding, Anopheles stephensi. In general terms: Surface plasmon resonance follows binding to a sensor surface in real time, without labels.

Assay [2] has the same test system. Description: SPR, immobilized CSDIR913-1190, steady-state fit. It counts as binding, Anopheles stephensi.

The structures appear in SMILES notation.

For the molecule `CC1(C)[C@H](C(=O)O[C@H](C#N)c2cccc(Oc3ccccc3)c2)[C@@H]1C=C(Br)Br` [deltamethrin], in assay [1], the equilibrium dissociation constant (Kd) (commonly the constant that tells how readily two partners part at equilibrium) was determined as 46.7 µM.
For `CCOC(=O)CC(SP(=S)(OC)OC)C(=O)OCC` (centres unmarked) [malathion], the affinity in assay [2], expressed as Kd, was 6.43 µM.

Source of the values: paper PMC11474193, “A cub and sushi domain-containing protein with esterase-like activity confers insecticide resistance in the Indian malaria vector Anopheles stephensi” (The Journal of Biological Chemistry, 2024).
